Where two headings read alike, the source gives them in different places.
Key:
Pelagia noctiluca = experiment: in vitro inhibition of cnidocyst discharge, physical contact with a gelatin probe; format: cell-based; settings: 0.5 M in gelatin probe; for Discharged cnidocysts/mm^2 (%): control = 100; for Inhibition (%): versus control
Experimental: The efficacy of plant extracts and phytocompounds, in inhibiting cnidocyst discharge of Pelagia noctiluca (which is one of the most common species along the Mediterranean Sea) was evaluated by physical contact with a gelatin probe. Said probes, besides stimulating the cnidocyte battery, retained the different types of discharged cnidocysts that can have different sizes, thereby allowing a quantitative evaluation of the response.
Each gelatin probe was made coating one end of a 6 cm length of monofilament fishing line (1 mm diameter) with 25% (w/v) gelatin in deionized water and then placed in a humidified atmosphere during 30 minutes for gelatin solidification. The different substances to be tested were dissolved in deionized water at selected concentrations before the addition of gelatin: oat extract (Burgundi Cosmetics) and tea extract (Symrise lberica) were used at a final concentration of active agent of 0.025 % (w/v); dipotassium glycyrrhizate and hydroxytyrosol were used at a concentration of 0.5 M. Plain gelatin covered probes (no embebed active compound) were used as controls and represented maximum discharge figures.
After solidification, each gelatin probe was gently wiped across oral arms of Pelagia noctiluca 5 times from 1 to 5 seconds in the tanks. The probes were then placed in humidified atmosphere plates and observed under a steroemicroscope for cnidocyst quantification. Individual cnidocysts that had discharged into the gelatin probes were counted in 7 different fields of view and the mean value was calculated. Results are the average of triplicate probes.
An inhibitory effect was considered if the substance diminished the number of discharged nematocytes per mm^2 of gelatin probe as compared with controls.
The graphical representation of the interaction between two active compounds could be expressed as follows. […] The straight line connecting the effects of both substances on their own is the locus of points that will produce this effect in a simple additive combination, the additivity line.
FIG. 1 and FIG. 2 represent, respectively, the interaction between oat extract and lanthanum and tea extract and lanthanum in the inhibition of cnidocyst discharge. The number of discharged cnidocysts in Pelagia noctiluca was analysed for each combination of active agents by physical contact with a gelatin probe as described in Example 2. The doses of each of the constituents are referred as concentrations of active agent, i.e. of pure oat or green tea extract, and lanthanum cation.

[1] = tested on: in situ cnidocytes of Pelagia noctiluca (Scyphozoa); settings: cited from earlier work

Row | SMILES | Discharged cnidocysts/mm^2 (%) (Pelagia noctiluca) | Inhibition (%) (Pelagia noctiluca) | cnidocyst discharge ([1]; oral arms previously treated with 20 µmol/L) | cnidocyst discharge ([1]; oral arms previously treated with 2 mmol/L)
1 | CC1(C)[C@@H](O[C@H]2O[C@H](C(=O)O)[C@@H](O)[C@H](O)[C@H]2O[C@@H]2O[C@H](C(=O)O)[C@@H](O)[C@H](O)[C@H]2O)CC[C@]2(C)[C@H]3C(=O)C=C4[C@@H]5C[C@@](C)(C(=O)O)CC[C@]5(C)CC[C@@]4(C)[C@]3(C)CC[C@@H]12 [Dipotassium glycyrrhizate, dipotassium glycyrrhizate] | 32,7% | -67,3% | – | –
2 | [Gd+3] [Gd^3+, gadolinium] | – | – | the discharge was inhibited | –
3 | [La+3] [La^3+, lanthanum] | – | – | – | the discharge was inhibited
4 | OCCc1ccc(O)c(O)c1 [WHidroxytyrosol, hydroxytyrosol] | 43,6% | -56,4% | – | –

Source: patent EP2363135B1, “Anti-jellyfish compositions” (Antonio Puig, S.A., priority 2010, dated 2011)
